Values after ≈ are worked out from the molar mass of the structure shown.
Experiments:
Format in all cases: functional
[1] = test system: Mycobacterium tuberculosis; experiment: Antitubercular activity against multidrug resistant Mycobacterium tuberculosis BLG3381 incubated for 5 days by microtiter plate method; details: BLG3381, 120 h, time 5 day
[2] = test system: Mycobacterium tuberculosis; experiment: Antitubercular activity against multidrug resistant Mycobacterium tuberculosis RF21212 incubated for 5 days by microtiter plate method; details: time 5 day; for MIC: Mycobacterium tuberculosis, RF21212, 120 h
[3] = test system: Mycobacterium tuberculosis; experiment: Antitubercular activity against multidrug resistant Mycobacterium tuberculosis RF21250 incubated for 5 days by microtiter plate method; details: time 5 day; for MIC: Mycobacterium tuberculosis, RF21250, 120 h
[4] = test system: Mycobacterium tuberculosis; experiment: Potentiation of rifampicin antitubercular activity against multidrug resistant Mycobacterium tuberculosis BLG3381 assessed as decrease in rifampicin MIC99.9 at 0.39 ug/ml by broth dilution method (reference value: 64 ug/ml); details: dose 0.39 µg/ml
[5] = test system: Mycobacterium tuberculosis; experiment: Potentiation of isoniazid antitubercular activity against multidrug resistant Mycobacterium tuberculosis BLG3381 assessed as decrease in isoniazid MIC99.9 at 0.39 ug/ml by broth dilution method (reference value: 12.8 ug/ml); details: dose 0.39 µg/ml
[6] = test system: Mycobacterium tuberculosis; experiment: Potentiation of rifampicin antitubercular activity against multidrug resistant Mycobacterium tuberculosis RF21212 assessed as decrease in rifampicin MIC99.9 at 3.125 ug/ml by broth dilution method (reference value: 128 ug/ml); details: dose 3.125 µg/ml
[7] = test system: Mycobacterium tuberculosis; experiment: Potentiation of isoniazid antitubercular activity against multidrug resistant Mycobacterium tuberculosis RF21212 assessed as decrease in isoniazid MIC99.9 at 3.125 ug/ml by broth dilution method (reference value: 12.8 ug/ml); details: dose 3.125 µg/ml
[8] = test system: Mycobacterium tuberculosis; experiment: Potentiation of rifampicin antitubercular activity against multidrug resistant Mycobacterium tuberculosis RF21250 assessed as decrease in rifampicin MIC99.9 at 0.39 ug/ml by broth dilution method (reference value: 128 ug/ml); details: dose 0.39 µg/ml
[9] = test system: Mycobacterium tuberculosis; experiment: Potentiation of isoniazid antitubercular activity against multidrug resistant Mycobacterium tuberculosis RF21250 assessed as decrease in isoniazid MIC99.9 at 0.39 ug/ml by broth dilution method (reference value: 3.2 ug/ml); details: dose 0.39 µg/ml
[10] = test system: Mycobacterium tuberculosis; experiment: Potentiation of rifampicin antitubercular activity against multidrug resistant Mycobacterium tuberculosis BLG3381 assessed as decrease in rifampicin MIC99.9 at 3.125 ug/ml by broth dilution method (reference value: 64 ug/ml); details: dose 3.125 µg/ml
[11] = test system: Mycobacterium tuberculosis; experiment: Potentiation of isoniazid antitubercular activity against multidrug resistant Mycobacterium tuberculosis BLG3381 assessed as decrease in isoniazid MIC99.9 at 3.125 ug/ml by broth dilution method (reference value: 12.8 ug/ml); details: dose 3.125 µg/ml
[12] = test system: Mycobacterium tuberculosis; experiment: Potentiation of rifampicin antitubercular activity against multidrug resistant Mycobacterium tuberculosis RF21212 assessed as decrease in rifampicin MIC99.9 at 0.78 ug/ml by broth dilution method (reference value: 128 ug/ml); details: dose 0.78 µg/ml
[13] = test system: Mycobacterium tuberculosis; experiment: Potentiation of isoniazid antitubercular activity against multidrug resistant Mycobacterium tuberculosis RF21212 assessed as decrease in isoniazid MIC99.9 at 1.56 ug/ml by broth dilution method (reference value: 12.8 ug/ml); details: dose 1.56 µg/ml
[14] = test system: Mycobacterium tuberculosis; experiment: Potentiation of rifampicin antitubercular activity against multidrug resistant Mycobacterium tuberculosis RF21250 assessed as decrease in rifampicin MIC99.9 at 0.78 ug/ml by broth dilution method (reference value: 128 ug/ml); details: dose 0.78 µg/ml
[15] = test system: Mycobacterium tuberculosis; experiment: Potentiation of isoniazid antitubercular activity against multidrug resistant Mycobacterium tuberculosis RF21250 assessed as decrease in isoniazid MIC99.9 at 0.78 ug/ml by broth dilution method (reference value: 3.2 ug/ml); details: dose 0.78 µg/ml
[16] = test system: Mycobacterium tuberculosis; experiment: Potentiation of rifampicin antitubercular activity against multidrug resistant Mycobacterium tuberculosis RF21212 assessed as decrease in rifampicin MIC99.9 at 1.56 ug/ml by broth dilution method (reference value: 128 ug/ml); details: dose 1.56 µg/ml
[17] = test system: Mycobacterium tuberculosis; experiment: Potentiation of isoniazid antitubercular activity against multidrug resistant Mycobacterium tuberculosis RF21250 assessed as decrease in isoniazid MIC99.9 at 1.56 ug/ml by broth dilution method (reference value: 3.2 ug/ml); details: dose 1.56 µg/ml
[18] = test system: Mycobacterium tuberculosis; experiment: Potentiation of isoniazid antitubercular activity against multidrug resistant Mycobacterium tuberculosis RF21212 assessed as decrease in isoniazid MIC99.9 at 0.78 ug/ml by broth dilution method (reference value: 12.8 ug/ml); details: dose 0.78 µg/ml
[19] = test system: Mycobacterium tuberculosis; experiment: Potentiation of rifampicin antitubercular activity against multidrug resistant Mycobacterium tuberculosis BLG3381 assessed as decrease in rifampicin MIC99.9 at 6.25 ug/ml by broth dilution method (reference value: 64 ug/ml); details: dose 6.25 µg/ml
[20] = test system: Mycobacterium tuberculosis; experiment: Potentiation of isoniazid antitubercular activity against multidrug resistant Mycobacterium tuberculosis BLG3381 assessed as decrease in isoniazid MIC99.9 at 6.25 ug/ml by broth dilution method (reference value: 12.8 ug/ml); details: dose 6.25 µg/ml
[21] = test system: Mycobacterium tuberculosis; experiment: Potentiation of rifampicin antitubercular activity against multidrug resistant Mycobacterium tuberculosis RF21250 assessed as decrease in rifampicin MIC99.9 at 3.125 ug/ml by broth dilution method (reference value: 128 ug/ml); details: dose 3.125 µg/ml
[22] = test system: Mycobacterium tuberculosis; experiment: Potentiation of isoniazid antitubercular activity against multidrug resistant Mycobacterium tuberculosis RF21250 assessed as decrease in isoniazid MIC99.9 at 3.125 ug/ml by broth dilution method (reference value: 3.2 ug/ml); details: dose 3.125 µg/ml

Row | Compound | MIC [1] | MIC99.9 [2] | MIC99.9 [3] | MIC99.9 [6] | MIC99.9 [7] | MIC [2] | MIC99.9 [10] | MIC99.9 [11] | MIC99.9 [13] | MIC99.9 [14] | MIC99.9 [15] | MIC99.9 [16] | MIC [3] | further results
1 | NC1=C(Cl)C(=O)c2ccccc2C1=O | 15.1 µM | 6.25 mg/L (≈ 30.1 µM) | 3.125 mg/L (≈ 15.1 µM) | 4 mg/L | 1.6 mg/L | – | – | – | – | – | – | – | – | MIC99.9 [4]: 0.007 mg/L; MIC99.9 [5]: 0.8 mg/L; MIC99.9 [8]: 0.125 mg/L; MIC99.9 [9]: 0.2 mg/L
2 | CCOc1cc(C2C(Cl)C(=O)N2C2=C(Cl)C(=O)c3ccccc3C2=O)ccc1O (stereo not given) | 28.9 µM | – | 3.125 mg/L (≈ 7.23 µM) | – | – | 7.23 µM (≈ 3.13 µg/mL) | 0.5 mg/L | 0.05 mg/L | 0.4 mg/L | 1 mg/L | 0.2 mg/L | – | – | MIC99.9 [12]: 0.5 mg/L
3 | O=C1C(Cl)=C(N2C(=O)C(Cl)C2c2ccc([N+](=O)[O-])cc2)C(=O)c2ccccc21 (stereo not given) | 15 µM | – | 3.125 mg/L (≈ 7.49 µM) | 2 mg/L | 1.6 mg/L | 30 µM (≈ 12.5 µg/mL) | 0.25 mg/L | 0.025 mg/L | – | 2 mg/L | 0.4 mg/L | – | – | –
4 | O=C1C(Cl)=C(N2C(=O)C(Cl)C2c2ccc(Cl)cc2)C(=O)c2ccccc21 (stereo not given) | 30.8 µM | 6.25 mg/L (≈ 15.4 µM) | 6.25 mg/L (≈ 15.4 µM) | – | – | – | 0.1 mg/L | 1.6 mg/L | 0.1 mg/L | 4 mg/L | 0.8 mg/L | 0.031 mg/L | – | –
5 | CN(C)c1ccc(C2C(Cl)C(=O)N2C2=C(Cl)C(=O)c3ccccc3C2=O)cc1 (stereo not given) | 30.1 µM | 6.25 mg/L (≈ 15.1 µM) | 6.25 mg/L (≈ 15.1 µM) | – | – | – | 4 mg/L | 1.6 mg/L | 3.2 mg/L | 1 mg/L | – | 16 mg/L | – | MIC99.9 [17]: 1.6 mg/L
6 | O=C1C(Cl)=C(N2C(=O)C(Cl)C2c2ccccc2)C(=O)c2ccccc21 (stereo not given) | 6.25 mg/L | – | – | – | – | – | – | – | – | – | – | – | – | –
7 | COc1ccc(C2C(Cl)C(=O)N2C2=C(Cl)C(=O)c3ccccc3C2=O)cc1 (stereo not given) | 15.5 µM | – | 6.25 mg/L (≈ 15.5 µM) | – | – | 31.1 µM (≈ 12.5 µg/mL) | 1 mg/L | 0.4 mg/L | – | – | – | 16 mg/L | – | MIC99.9 [18]: 1.6 mg/L; MIC99.9 [8]: 0.125 mg/L; MIC99.9 [9]: 0.4 mg/L
8 | O=C1C(Cl)=C(Cl)C(=O)c2ccccc21 [Dichlon] | 55.1 µM | – | – | 32 mg/L | 3.2 mg/L | 55.1 µM (≈ 12.5 µg/mL) | – | – | – | – | – | – | 27.5 µM (≈ 6.25 µg/mL) | MIC99.9 [19]: 8 mg/L; MIC99.9 [20]: 0.8 mg/L; MIC99.9 [21]: 16 mg/L; MIC99.9 [22]: 0.4 mg/L
9 | NNC(=O)c1ccncc1 [ISONIAZID] | 93.9 µM | – | – | – | – | 93.9 µM (≈ 12.9 µg/mL) | – | – | – | – | – | – | 23.3 µM (≈ 3.2 µg/mL) | –
10 | CO[C@H]1/C=C/O[C@@]2(C)Oc3c(C)c(O)c4c(O)c(c(/C=N/N5CCN(C)CC5)c(O)c4c3C2=O)NC(=O)/C(C)=C\C=C\[C@H](C)[C@H](O)[C@@H](C)[C@@H](O)[C@@H](C)[C@H](OC(C)=O)[C@@H]1C [RIFAMPIN] | 77.8 µM | – | – | – | – | 156 µM (≈ 128 µg/mL) | – | – | – | – | – | – | 156 µM (≈ 128 µg/mL) | –
